Reference: US20230075521A1, “RESVERATROL PHARMACEUTICAL COMPOSITIONS AND METHODS OF USE THEREOF” (priority 2021, published 2023)

What was measured:
[1] = Mouse PK study, resveratrol in brain; type: in vivo, CD-1 mice; conditions: male mice, single dose 50 mg/kg oral, 30 min
Method: (§1) For mouse PK studies, male CD-1 mice (Charles River Canada) were used. Animals were food fasted for 4 h prior to dosing and water fasted 1 h prior to dosing. […] At each time point (15 min, 30 min, 1 h, 4 h) 3 mice of each group were terminally bled via cardiac puncture under red light. Blood was collected into sodium-EDTA tubes under red light and spun at […] for 10 min at 6800×g. Plasma was collected and split into amber tubes. Both left and right brain were collected and snap-frozen in liquid nitrogen and stored at […] Drug concentrations were analyzed by liquid chromatography-mass spectrometry (LC-MS/MS) by KDM Laboratories Inc. For rat PK studies, male Sprague-Dawley rats (Charles River Canada) were used. […] Blood was collected under red light from the trunk at 30 min into K3EDTA tubes and centrifuged immediately at 4° C. for 10 min at 6800×g, and plasma collected into amber tubes. Brains were collected and snap-frozen in liquid nitrogen and stored at […] Drug concentration was analyzed by LC-MS/MS.

[2] = Rat PK study, resveratrol in plasma at 30 min; type: in vivo; conditions: male, oral, 50 mg/kg, Sprague-Dawley rats, single dose, 30 min after treatment
Method: as §1

3×Tg-AD mice = assay: Behavior battery, long-term prophylactic treatment; type: in vivo, mouse; conditions: 50 mg/kg oral, at 6 or 10 months of age
Method: For long-term prophylactic studies, a cohort of 30 mice was used (50% males and females). […] JOTROL™ and RSV were prepared under red light and administered using a red syringe and metal gavage to prevent light exposure. Mice were treated 5 days a week for 9 months beginning at 4 months of age (prior to disease development). As detailed below, a battery of behavioral tests was conducted, including Y-maze spontaneous alternation, open field, rotarod, novel object recognition, Barnes maze, and object location memory. A battery of behavior tests designed to test motor coordination skills, anxiety, spatial learning and reference memory was performed on all long-term-treated mice. Motor coordination was evaluated using rotarod. Anxiety was evaluated by open field and elevated 0-maze tests. […] Motor coordination was assessed by the latency to fall on the very first trial between treatment groups. Motor learning was measured both within and between sub-jects by comparing the first trial with subsequent trials and is evident as an increased latency to fall over time. […] Distance, velocity, and time in center versus periphery were recorded and analyzed. Anxiety-related behavior can be determined by the duration spent in the center of the field versus the periphery. […] Total arm entries and percent of spontaneous alternations were recorded. […]

[3] = tested on: Human Aβ1-42, Aβ1-40, phosphorylated tau, total tau; assay: ELISA of AD pathological hallmarks in brain tissue; type: in vivo, 3×Tg-AD mouse; conditions: 50 mg/kg oral, 9 months
Method: At study endpoints (age 15 months for sub-chronic study, age 13 months for long-term study), mice were anaesthetized with isoflurane and blood was collected by transcardial puncture. Blood was stored on ice and then centrifuged at 10,000×g at 4° C. for 10 min to collect serum and stored at −80° C. until use. The brain was then extracted and quickly dissected on ice to collect prefrontal cortex (PFC), hippocampus, entorhinal cortex (ERC), and cerebellum, which were immediately frozen in liquid nitrogen. The samples were stored at −80° C. until processed for RNA or protein extraction. […]
Protein lysates were extracted by sonicating tissue in M-PER Mammalian Protein Extraction Reagent (Thermo Fisher Scientific) supplemented with protease inhibitor (Thermo Fisher Scientific) and phosphatase inhibitor (Thermo Fisher Scientific). Total protein was quantified using Pierce BCA Protein Assay Kit (Thermo Fisher Scientific) and read at 562 nm using EnVision (Perkin Elmer).
Human Aβ1-42, Aβ1-40, phosphorylated tau Ser 396, phosphorylated tau Thr181, and total tau were measured in brain tissue by enzyme linked immuno-sorbent assay (ELISA; Invitrogen by Thermo) and normalized to total protein. All the kits were used as per the manufacturer's instructions and measured using the EnVision® multimode plate reader (Perkin Elmer). […]

Oc1ccc(/C=C/c2cc(O)cc(O)c2)cc1 [RSV, (trans-)resveratrol]
Resveratrol accumulation in the brain [1]: not detected in the brain | concentration at 30 min [2]: 180 ± 33.6 ng/mL | Y-maze spontaneous alternation performance (3×Tg-AD mice): No significant group differences | Phospho-tau at Ser396 in PFC, RSV-treated vs vehicle ([3]; male 3×Tg-AD mice): significantly different | Total tau in hippocampus, decrease vs vehicle ([3]; males and females analyzed together): 170.5±44.83
